“Also recorded” adds a separate entry of the source.
Legend:
[1] = system: neural stem cells (BrdU positive cells) in hippocampal dentate gyrus; assay: Nerve regeneration in mouse hippocampal dentate gyrus: BrdU labelling, immunohistochemical count and GCL volume; type: in vivo
Method: C57BL/6 male SPF mice (8-week-old at the beginning of the experiments) purchased from Japan SLC, Inc. were used. Animals were subjected to experiments after acclimating in a breeding room under control at a temperature of 23±1° C. and illumination of 12 hours (7:00 to 19:00) for 5 days or longer. During breeding, animals had free access to solid food MF (Oriental Yeast Co., Ltd.) and water (tap water).
BrdU (Sigma) for labeling neural stem cells was used by dissolving in a phosphate buffer solution (PBS: Sigma) containing 0.007N HCl at a concentration of 5 mg/mL (Yoshimura et al., PNAS, 98, 5874-5879, 2001, Yoshimura et al., J. Clin. Invest., 112, 1202-1210, 2003). BrdU was intraperitoneally administered at a dose of 50 mg/kg (0.1 ml BrdU solution/10 g weight) for three times (every 4 hours).
Injectable distilled water was orally administered to animals of the vehicle control group.
The removed brain was sliced into coronal sections in a frozen state with a thickness of 40 μm using a sliding microtome (Leica, Model SM2000R, Nussloch). The sliced brain tissues were successively placed in 10 wells of a culture plate with a PBS solution containing sodium azide such that 10 sections were placed per well.
Immunostaining of the brain tissues were carried out by flotation (Yoshimura et al., PNAS, 98, 5874-5879, 2001, Yoshimura et al., J. Clin. Invest., 112, 1202-1210, 2003). Peroxidase method (ABC system, Vector Laboratories Inc.) was used for immunohistochemical detection of BrdU (Yoshimura et al., PNAS, 98, 5874-5879, 2001, Yoshimura et al., J. Clin. Invest., 112, 1202-1210, 2003). As a primary antibody to BrdU, rat anti-BrdU antibody (400-fold-diluted, Accurate Chemical & Scientific Corporation) was used. As a secondary antibody, rabbit IgG biotinylated antibody (200-fold-diluted, Vector Laboratories Inc.) was used
For quantitation, four hippocampal sections (intervals of sections being 400 μm, four sections between −1.4 mm to −2.6 mm from bregma) were used for each individual. All of the BrdU positive cells present in a subgranular zone (SGZ) and a granule cell layer (GCL) of the hippocampal dentate gyrus were determined. SGZ was defined as an area with a depth of 20 μm (a size corresponding to two cells) just below the GCL (on the side of hylus). […] The GCL area in each hippocampal section was determined as a cresyl violet positive GCL area using an image analyzing software (NIH, image ver. 1.60).
A volume of GCL (GCLV) was determined as a GCL volume in left hemisphere between −1.4 mm to −2.6 mm from bregma (Cavalieri technique). The number of BrdU positive cells in GCLV was calculated by multiplying the number of BrdU positive cells in the four hippocampal sections by 10. […]
All of the quantitative values are indicated in mean ±standard error (n=8 for each group).

[2] = system: neural stem cells (BrdU positive cells) in hippocampal dentate gyrus; assay: Nerve regeneration in rat hippocampal dentate gyrus: BrdU labelling, immunohistochemical count and GCL volume; type: in vivo; conditions: for GCL volume / Number of BrdU positive cells per hippocampus: SD rats, mean ± standard error, n=11; for Number of BrdU positive cells per hippocampus: vehicle 5490 ± 179, * p<0.05
Method: SD male SPF rats (6-week-old at the beginning of the experiments) purchased from Japan SLC, Inc. were bred under the same conditions as the mice in Example 2. Animals were subjected to experiments after acclimating for 5 days or longer following purchase.
BrdU (Sigma) for labeling neural stem cells was dissolved in PBS containing 0.014N HCl at a concentration of 10 mg/mL. BrdU was intraperitoneally administered at a dose of 50 mg/kg for three times (every 4 hours).
Injectable distilled water was orally administered at the same volume to animals in the vehicle control group.
The removed brain was sliced into sections as described in Example 2 for use in immunohistochemical studies.
Immunostaining of the brain tissues were carried out as described in Example 2.
For quantitation, four hippocampal sections (thickness of 40 μm, intervals of sections being 400 μm, four sections between −3.6 mm to −4.8 mm from bregma) were used for each individual. BrdU positive cells were counted in the same manner as Example 2. The GCL volume in each hippocampal section and the total number of BrdU positive cells in each hippocampal dentate gyrus were also determined as described in Example 2.
In Table 2, “*” indicates p<0.05, in comparison to the vehicle control group.

[3] = system: rat neural progenitor cells; assay: Intracellular calcium concentration of fetal rat neural progenitor cells (Fluo-3); type: cell-based
Method: Cerebrums were isolated from fetuses obtained from 14.5 days pregnant SD female rats (Japan SLC, Inc.). Cells were dispersed by pipetting the tissue in cold L-15 medium. These cells were cultured in a suspension containing 20 ng/ml human basic fibroblast growth factor (bFGF) in serum-free D-MEM/F-12 medium (supplemented with B-27, N2 (both from Invitrogen) and gentamicin beforehand). The rat neural progenitor cells are known to form a neurosphere in this medium. After 5 to 7 days, the neurosphere was collected and pipetted to isolate the rat neural progenitor cells, followed by passage culture using the medium described above.
The neural progenitor cells were isolated from the neurosphere that was collected a day before the experiment and suspended in the bFGF-free medium otherwise same as described above. After the number of cells was counted, 50,000 cells each were suspended in 100 μL of the medium described above and dispensed into a 96-flat bottom culture plate. Intracellular Ca^++ concentration was determined using a commercially available kit (Calcium Kit-Fluo-3, Dojindo laboratories) according to the attached instruction. To some of the wells, atropine (muscarine receptor antagonist) was added to 25 μmol/L and cultured at 37° C. for 30 minutes beforehand. […]

[4] = system: hippocampus of PTSD patients; conditions: administration to PTSD patients, reported by Bremner 2002; cited from earlier work
[5] = 0.5 mg/kg orally once a day for 28 days
[6] = 2 mg/kg orally once a day for 28 days

## COc1cc2c(cc1OC)C(=O)C(CC1CCN(Cc3ccccc3)CC1)C2.Cl (stereo not drawn) [Donepezil, 1-benzyl-4-[(5,6-dimethoxy-1-indanone)-2-yl]methylpiperidine hydrochloride]
[1]; C57BL/6 mice, 1 mg/kg orally once a day for 14 days, mean ± standard error, n=8, vehicle 1091 ± 56, * p<0.05
  Number of BrdU positive cells per hippocampus: 1528 ± 137*
[1]; mice, 1 mg/kg orally, 14 days
  Effect on the volume of hippocampal nerve cell layer (GCL), in words: no effect
[1]; mice, 1 mg/kg orally, 14 days, statistically significant, hydrochloride, 1 mg/kg
  Number of BrdU positive cells compared to vehicle group (in words): higher; also recorded: increased
[2]; [5]
  GCL volume: 1.27 ± 0.04 mm^3
  Number of BrdU positive cells per hippocampus: 6880 ± 436*
[2]; [6]
  GCL volume: 1.35 ± 0.04 mm^3
  Number of BrdU positive cells per hippocampus: 6694 ± 357*
[2]; rats, 0.5 and 2 mg/kg orally, 28 days
  Influence on the volume of rat hippocampal nerve cell layer (GCL), in words: no influence
[2]; rats, each donepezil group (0.5 and 2 mg/kg orally, 28 days), statistically significant
  Number of BrdU positive cells per hippocampus compared to vehicle group (in words): higher

## CN1[C@@H]2CC[C@H]1C[C@@H](OC(=O)C(CO)c1ccccc1)C2 (stereo partly drawn) [atropine]
[3]; 25 μmol/L pretreatment for 30 minutes
  Antagonism of the acetylcholine/carbachol induced intracellular Ca++ increase: completely antagonized; also recorded: completely inhibited

## C[N+](C)(C)CCOC(N)=O [carbachol]
[3]; 25 μmol/L agonist, Fluo-3 fluorescence
  Change of intracellular Ca++ concentration on stimulation: increases

## Fc1ccc([C@@H]2CCNC[C@H]2COc2ccc3c(c2)OCO3)cc1 [paroxetine]
[4]
  Volume of hippocampus of PTSD patients: increase
